Experimental data published in ChEMBL document CHEMBL1201862, “PubChem BioAssay data set” (2004).
Calls of active or inactive are those of the source. Cut-off read from the data, not from the text of the source: actives have a measured IC50 and inactives only a lower limit.

Molecular target: Envelope glycoprotein gp160 (Human immunodeficiency virus 1, UniProt Q6QLK5)
Test: inhibitors of HIV fusion peptide binding, primary screen, biochemical, uHTS, fluorescence dequenching (AID 1986)

Envelope glycoprotein gp160, sequence (Q6QLK5 whole entry, the tested form may be a part): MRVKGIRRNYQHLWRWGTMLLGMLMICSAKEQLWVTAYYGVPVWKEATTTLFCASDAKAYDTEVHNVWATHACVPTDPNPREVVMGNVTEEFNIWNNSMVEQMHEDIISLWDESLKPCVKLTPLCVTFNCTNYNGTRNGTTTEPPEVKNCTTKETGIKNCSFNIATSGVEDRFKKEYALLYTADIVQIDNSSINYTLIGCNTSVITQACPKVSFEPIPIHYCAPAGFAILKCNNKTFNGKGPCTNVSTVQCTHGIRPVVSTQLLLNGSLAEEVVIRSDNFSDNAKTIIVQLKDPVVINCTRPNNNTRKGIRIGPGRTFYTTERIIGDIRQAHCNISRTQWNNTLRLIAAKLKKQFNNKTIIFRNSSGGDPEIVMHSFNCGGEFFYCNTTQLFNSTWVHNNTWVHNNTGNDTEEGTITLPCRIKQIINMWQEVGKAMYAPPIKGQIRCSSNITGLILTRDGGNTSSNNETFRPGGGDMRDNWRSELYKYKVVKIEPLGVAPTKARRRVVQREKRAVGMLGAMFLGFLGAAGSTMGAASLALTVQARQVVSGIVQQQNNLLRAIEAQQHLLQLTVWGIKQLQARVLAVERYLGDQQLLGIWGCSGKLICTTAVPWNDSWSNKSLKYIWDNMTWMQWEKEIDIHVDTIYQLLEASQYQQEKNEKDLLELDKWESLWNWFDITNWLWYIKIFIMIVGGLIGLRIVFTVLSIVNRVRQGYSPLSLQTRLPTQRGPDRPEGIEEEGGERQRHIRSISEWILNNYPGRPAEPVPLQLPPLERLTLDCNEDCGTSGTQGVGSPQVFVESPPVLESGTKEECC

O=C(O)CCCCCN1C(=O)/C(=C\c2cn(-c3ccccc3)nc2-c2cccs2)SC1=S
IC50: 9.84 µM (active)

Cc1ccc(S(=O)(=O)Oc2ccc(/C=C3/C(=N)N4C(=NC3=O)SN=C4S(C)(=O)=O)cc2)cc1
IC50: 16.9 µM (active)

O=C(O)c1ccccc1NC(=O)c1ccccc1Nc1ccccc1
IC50: 17.5 µM (active)

CCOC(=O)C1=C(C)N=c2s/c(=C\c3ccc(OCC(=O)O)cc3)c(=O)n2C1c1ccc(OC(C)C)cc1 (centres undefined)
IC50: 16.3 µM (active)
